Data from PMC10455244, “Alpha-Mangostin: A Potent Inhibitor of TRPV3 and Pro-Inflammatory Cytokine Secretion in Keratinocytes” (International Journal of Molecular Sciences, 2023).

Tested on: human keratinocytes
Format: cell-based
Conditions: 0.3 µM with 500 µM carvacrol, 24 h
Procedure: Figure 5 Alpha-mangostin (α-MG) inhibited carvacrol-induced cytokine release in NHEK cells and rescued carvacrol-induced cell death. (A) Alpha-mangostin inhibited the carvacrol-induced release of IL-8 and IL-6 in NHEK. Cells were induced by 300 µM carvacrol with or without either 1 µM alpha-mangostin or 10 µM 74a for 24 h before the ELISA assay. (B) Alpha-mangostin reduced cell death caused by carvacrol in human keratinocytes. Cells were induced by 500 µM carvacrol with or without either 0.3 µM alpha-mangostin or 10 µM 74a for 24 h. The optical density (O.D.) values were normalized to those of the untreated cells. Data are shown as means ± SEM. **** p < 0.0001.
Strong activation of TRPV3 in keratinocytes by carvacrol at concentrations higher than 300 µM was reported to cause cell death. Therefore, we examined the effect of alpha-mangostin in keratinocytes exposed to 500 µM carvacrol.
The cell counting kit-8 (CCK8; Dojindo Laboratories, Kumamoto, Japan) was employed for viability assay. Keratinocytes (10^4 cells/well) plated in 96-well plates were incubated for about one day before exposing them to alpha-mangostin for 24 h. […] The optical density (O.D., 450 nm) of each well was measured after incubating the cells with CCK-8 solution ([…]) for 2 h. […]

## COc1c(O)cc2oc3cc(O)c(CC=C(C)C)c(O)c3c(=O)c2c1CC=C(C)C [Alpha-mangostin]
  Effect on carvacrol-induced decrease of cell viability: significantly reversed
